According to US9422285B2, “Substituted pyrazolo[1,5-A]-pyridine-3-carboxamides and use thereof” (Bayer Pharma Aktiengesellschaft, priority 2014, dated 2016):
Counter-ions that a name gives are not always drawn.

Target: T1, recombinant guanylate cyclase reporter cell line (Rattus norvegicus, UniProt P19686+P20595)
T1 construct: expressed in transfected cells
T1 sequence (P19686 1-690): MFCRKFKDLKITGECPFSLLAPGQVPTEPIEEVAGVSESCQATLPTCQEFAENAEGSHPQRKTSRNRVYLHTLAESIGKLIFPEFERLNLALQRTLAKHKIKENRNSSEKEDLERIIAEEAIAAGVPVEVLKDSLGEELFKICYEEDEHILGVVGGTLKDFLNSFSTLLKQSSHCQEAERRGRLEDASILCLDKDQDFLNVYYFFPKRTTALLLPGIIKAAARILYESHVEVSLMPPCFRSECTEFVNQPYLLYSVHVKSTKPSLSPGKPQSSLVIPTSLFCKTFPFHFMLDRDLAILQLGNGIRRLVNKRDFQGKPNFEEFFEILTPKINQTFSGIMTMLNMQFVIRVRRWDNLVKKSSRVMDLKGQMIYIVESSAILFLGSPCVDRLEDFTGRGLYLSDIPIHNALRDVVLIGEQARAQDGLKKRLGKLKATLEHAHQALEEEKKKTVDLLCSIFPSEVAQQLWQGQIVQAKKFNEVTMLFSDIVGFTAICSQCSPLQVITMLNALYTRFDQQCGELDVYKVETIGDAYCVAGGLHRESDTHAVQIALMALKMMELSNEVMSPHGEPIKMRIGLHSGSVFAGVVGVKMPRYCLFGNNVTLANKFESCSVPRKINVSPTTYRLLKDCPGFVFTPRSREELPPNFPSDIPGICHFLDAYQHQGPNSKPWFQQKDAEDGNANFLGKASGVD
T1 sequence (P20595 1-619): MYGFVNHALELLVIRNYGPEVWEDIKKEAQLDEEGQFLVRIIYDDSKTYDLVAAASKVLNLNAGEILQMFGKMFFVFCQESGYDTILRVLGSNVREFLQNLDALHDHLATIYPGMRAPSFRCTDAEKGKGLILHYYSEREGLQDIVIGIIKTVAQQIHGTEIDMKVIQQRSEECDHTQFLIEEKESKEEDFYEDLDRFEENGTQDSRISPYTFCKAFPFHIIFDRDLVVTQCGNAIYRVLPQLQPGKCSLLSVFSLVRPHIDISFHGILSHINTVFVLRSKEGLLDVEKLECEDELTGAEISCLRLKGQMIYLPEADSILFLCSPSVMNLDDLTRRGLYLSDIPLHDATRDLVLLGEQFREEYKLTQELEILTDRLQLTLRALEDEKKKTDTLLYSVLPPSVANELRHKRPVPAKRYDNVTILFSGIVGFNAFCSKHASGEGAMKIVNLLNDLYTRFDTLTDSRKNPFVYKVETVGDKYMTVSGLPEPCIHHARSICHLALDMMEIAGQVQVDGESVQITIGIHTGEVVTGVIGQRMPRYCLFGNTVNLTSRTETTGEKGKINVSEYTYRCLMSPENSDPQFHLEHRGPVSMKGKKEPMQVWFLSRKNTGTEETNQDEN
Assay: Effect on a recombinant guanylate cyclase reporter cell line (B-2)
Format: cell-based
Conditions: in some cases mean values for individual determinations
Procedure: B-2. Effect on a Recombinant Guanylate Cyclase Reporter Cell Line
The cellular effect of the inventive compounds is determined using a recombinant guanylate cyclase reporter cell line, as described in F. Wunder et al., Anal. Biochem. 339, 104-112 (2005).
Representative MEC values (MEC=minimum effective concentration) for the inventive compounds are shown in the table below (in some cases as mean values for individual determinations): […]

SMILES | MEC (minimum effective concentration) [µM]
Cc1cc(OCc2c(F)cccc2F)n2nc(C)c(C(=O)NCC(C)(N)CCCF)c2c1 (single isomer, unassigned) [Example 45, ent-N-(2-Amino-5-fluoro-2-methylpentyl)-7-[(2,6-difluorobenzyl)oxy]-2,5-dimethylpyrazolo[1,5-a]pyridine-3-carboxamide] | 0.3
Cc1cc(OCc2c(F)cccc2F)n2nc(C3CC3)c(C(=O)NCC(C)(N)CC(F)F)c2c1 (single isomer, unassigned) [Example 57, ent-N-(2-Amino-4,4-difluoro-2-methylbutyl)-2-cyclopropyl-7-[(2,6-difluorobenzyl)oxy]-5-methylpyrazolo[1,5-a]pyridine-3-carboxamide] | 0.3
CSCCC(N)CNC(=O)c1c(C)nn2c(OCc3c(F)cccc3F)cc(C)cc12 (racemic) [Example 156, rac-N-[2-Amino-4-(methylsulphanyl)butyl]-7-[(2,6-difluorobenzyl)oxy]-2,5-dimethylpyrazolo[1,5-a]pyridine-3-carboxamide] | 0.3
Cc1cc(OCc2c(F)cccc2F)n2nc(C)c(C(=O)NC[C@@H]3CCCCN3)c2c1 [Example 129, 7-[(2,6-Difluorobenzyl)oxy]-2,5-dimethyl-N-[(2S)-piperidin-2-ylmethyl]pyrazolo[1,5-a]pyridine-3-carboxamide] | 3.0
CCCC[C@@H](C)NC(=O)c1c(C)nn2c(OCc3c(F)cccc3F)cc(C)cc12 [Example 94, 7-[(2,6-Difluorobenzyl)oxy]-N-[(2R)-hexan-2-yl]-2,5-dimethylpyrazolo[1,5-a]pyridine-3-carboxamide] | 1.0
CCCC(C)(N)CNC(=O)c1c(C)nn2c(OCC3CCCCC3)cc(C)cc12 (racemic) [Example 159, rac-N-(2-Amino-2-methylpentyl)-7-(cyclohexylmethoxy)-2,5-dimethylpyrazolo[1,5-a]pyridine-3-carboxamide] | 3.0
Cc1cc(OCc2c(F)cccc2F)n2nc(C)c(C(=O)NC(CN)c3cccc(OC(F)(F)F)c3)c2c1 (racemic) [Example 132, rac-N-{2-Amino-1-[3-(trifluoromethoxy)phenyl]ethyl}-7-[(2,6-difluorobenzyl)oxy]-2,5-dimethylpyrazolo[1,5-a]pyridine-3-carboxamide] | 1.0
Cc1cc(OCc2c(F)cccc2F)n2nc(C)c(C(=O)NCCCS(=O)(=O)NC3CC3)c2c1 [Example 151, N-[3-(Cyclopropylsulphamoyl)propyl]-7-[(2,6-difluorobenzyl)oxy]-2,5-dimethylpyrazolo[1,5-a]pyridine-3-carboxamide] | 3.0
C=CCONC(=O)c1c(C)nn2c(OCc3c(F)cccc3F)cc(C)cc12 [Example 65, N-(Allyloxy)-7-[(2,6-difluorobenzyl)oxy]-2,5-dimethylpyrazolo[1,5-a]pyridine-3-carboxamide trifluoroacetate] | 3.0
Cc1cc(OCc2c(F)cccc2F)n2nc(C)c(C(=O)NCC(C)(N)CCF)c2c1 (single isomer, unassigned) [Example 49, ent-N-(2-Amino-4-fluoro-2-methylbutyl)-7-[(2,6-difluorobenzyl)oxy]-2,5-dimethylpyrazolo[1,5-a]pyridine-3-carboxamide] | 0.3
CCCC(C)(N)CNC(=O)c1c(C)nn2c(OCc3c(F)cccc3F)cc(OC)cc12 (racemic) [Example 171, rac-N-(2-Amino-2-methylpentyl)-7-[(2,6-difluorobenzyl)oxy]-5-methoxy-2-methylpyrazolo[1,5-a]pyridine-3-carboxamide] | 1.0
Cc1cc(OCc2c(F)cccc2F)n2nc(C)c(C(=O)NC3CCNC(C(F)(F)F)C3)c2c1 (centres unmarked) [Example 154, 7-[(2,6-Difluorobenzyl)oxy]-2,5-dimethyl-N-[2-(trifluoromethyl)piperidin-4-yl]pyrazolo[1,5-a]pyridine-3-carboxamide] | 1.0
Cc1cc(OCc2c(F)cccc2F)n2nc(C)c(C(=O)NCC(C)(N)CF)c2c1 (single isomer, unassigned) [Example 40, ent-N-(2-Amino-3-fluoro-2-methylpropyl)-7-[(2,6-difluorobenzyl)oxy]-2,5-dimethylpyrazolo[1,5-a]pyridine-3-carboxamide] | 1.0
Cc1cc(OCc2c(F)cccc2F)n2nc(C)c(C(=O)NCC3CSCCN3)c2c1 (racemic) [Example 88, rac-7-[(2,6-Difluorobenzyl)oxy]-2,5-dimethyl-N-(thiomorpholin-3-ylmethyl)pyrazolo[1,5-a]pyridine-3-carboxamide] | 1.0
Cc1cc(OCc2c(F)cccc2F)n2nc(C)c(C(=O)NC3CCC3(C)N)c2c1 (racemic) [Example 91, rac-N-(2-Amino-2-methylcyclobutyl)-7-[(2,6-difluorobenzyl)oxy]-2,5-dimethylpyrazolo[1,5-a]pyridine-3-carboxamide] | 3.0
Cc1cc(OCc2c(F)cccc2F)n2nc(C)c(C(=O)NOCCO)c2c1 [Example 64, 7-[(2,6-Difluorobenzyl)oxy]-N-(2-hydroxyethoxy)-2,5-dimethylpyrazolo[1,5-a]pyridine-3-carboxamide trifluoroacetate] | 3.0
Cc1cc(OCc2c(F)ccc(F)c2F)n2nc(C)c(C(=O)NCC(C)(N)C3CC3)c2c1 (racemic) [Example 13, rac-N-(2-Amino-2-cyclopropylpropyl)-2,5-dimethyl-7-[(2,3,6-trifluorobenzyl)oxy]pyrazolo[1,5-a]pyridine-3-carboxamide] | 1.0
Cc1cc(OCc2c(F)ccc(F)c2F)n2nc(C)c(C(=O)NCC3(O)CC3)c2c1 [Example 25, N-[(1-Hydroxycyclopropyl)methyl]-2,5-dimethyl-7-[(2,3,6-trifluorobenzyl)oxy]pyrazolo[1,5-a]pyridine-3-carboxamide] | 0.3
Cc1cc(OCc2c(F)cccc2F)n2nc(C)c(C(=O)NNC(=O)CN3CCCC3=O)c2c1 [Example 175, 7-[(2,6-Difluorobenzyl)oxy]-2,5-dimethyl-N′-[(2-oxopyrrolidin-1-yl)acetyl]pyrazolo[1,5-a]pyridine-3-carbohydrazide trifluoroacetate] | 10
Cc1cc(OCc2c(F)cccc2F)n2nc(C)c(C(=O)NCC(F)(F)CN)c2c1 [Example 81, N-(3-Amino-2,2-difluoropropyl)-7-[(2,6-difluorobenzyl)oxy]-2,5-dimethylpyrazolo[1,5-a]pyridine-3-carboxamide] | 1.0
Cc1cc(OCc2c(F)ccc(F)c2F)n2nc(C)c(C(=O)N[C@@H](CO)C(=O)Nc3ccc4ccccc4c3)c2c1 [Example 7, N-[(2S)-3-Hydroxy-1-(2-naphthylamino)-1-oxopropan-2-yl]-2,5-dimethyl-7-[(2,3,6-trifluorobenzyl)oxy]pyrazolo[1,5-a]pyridine-3-carboxamide] | 1.0
CCC(C)(N)CNC(=O)c1c(C)nn2c(OCc3c(F)cccc3F)cc(C)cc12 (single isomer, unassigned) [Example 2, ent-N-(2-Amino-2-methylbutyl)-7-[(2,6-difluorobenzyl)oxy]-2,5-dimethylpyrazolo[1,5-a]pyridine-3-carboxamide formate] | 0.3
COc1ccc2c(c1)C(NC(=O)c1c(C)nn3c(OCc4c(F)cccc4F)cc(C)cc13)CCC2 (racemic) [Example 146, rac-7-[(2,6-Difluorobenzyl)oxy]-N-(7-methoxy-1,2,3,4-tetrahydronaphthalen-1-yl)-2,5-dimethylpyrazolo[1,5-a]pyridine-3-carboxamide] | 1.0
